# Data from ChEMBL document CHEMBL5346977, “Discovery of Novel d-(+)-Biotin-Conjugated Resorcinol Dibenzyl Ether-Based PD-L1 Inhibitors for Targeted Cancer Immunotherapy” (J Med Chem, 2023).
# The source made the active and inactive calls. The calls are words filed in the database; no cut-off is given here.
# Tests used:
# B16-F10 [1] = assay: Antitumor immunity against mouse B16-F10 cells implanted in allogenic BALB/c mouse assessed as increase in CD3+ CD4+ T cells percentage at 50 mg/kg, ip by flow cytometric analysis; type: functional, organism-based
# [2] = Toxicity in allogenic BALB/c mouse implanted with mouse B16-F10 cells assessed as inflammatory cell infiltration in colon at 50 mg/kg, ip by H&E staining based analysis; type: organism-based; conditions: in vivo
# [3] = Drug concentration in liver of C57BL/6 mouse implanted with mouse B16-F10 cells at 50 mg/kg, ip measured after 1 hrs by UPLC-MS/MS analysis; type: ADME, organism-based; conditions: read-out: Ct
# [4] = Apparent volume of distribution in Sprague-Dawley rat at 1 mg/kg, iv administered as single dose and measured after 48 hrs by HPLC-MS/MS analysis; type: ADME, organism-based; conditions: in vivo, read-out: Vz
# [5] = MRT (0 to infinity) in C57BL/6 mouse at 50 mg/kg, ip measured after 4 hrs by HPLC-MS/MS analysis; type: ADME, organism-based; conditions: in vivo
# [6] = Drug concentration in plasma of C57BL/6 mouse implanted with mouse B16-F10 cells at 50 mg/kg, ip measured after 1 hrs by UPLC-MS/MS analysis; type: ADME, organism-based
# [7] = Toxicity in […] with mouse B16-F10 cells assessed as effect on body weight at 50 mg/kg, ip administered once daily for 14 days; type: organism-based; conditions: in vivo, 336 h, time 14 day
# B16-F10 [8] = assay: Antitumor activity against mouse B16-F10 cells implanted in syngeneic C57BL/6 mouse assessed as decrease in tumor volume at 50 mg/kg, ip measured after 12 days relative to control; type: functional; design: scale not given: the % may be the effect or the level left; conditions: time 12 day
# [9] = Drug concentration in brain of C57BL/6 mouse implanted with mouse B16-F10 cells at 50 mg/kg, ip measured after 4 hrs by UPLC-MS/MS analysis; type: ADME, organism-based; conditions: read-out: Ct
# [10] = Drug concentration in tumor of C57BL/6 mouse implanted with mouse B16-F10 cells at 50 mg/kg, ip measured after 2 hrs by UPLC-MS/MS analysis; type: ADME, organism-based, Neoplasm; conditions: read-out: Ct
# [11] = Drug concentration in spleen of C57BL/6 mouse implanted with mouse B16-F10 cells at 50 mg/kg, ip measured after 1 hrs by UPLC-MS/MS analysis; type: ADME, organism-based; conditions: read-out: Ct
# [12] = Drug concentration in brain of C57BL/6 mouse implanted with mouse B16-F10 cells at 50 mg/kg, ip measured after 2 hrs by UPLC-MS/MS analysis; type: ADME, organism-based; conditions: read-out: Ct
# [13] = Drug concentration in plasma of C57BL/6 mouse implanted with mouse B16-F10 cells at 50 mg/kg, ip measured after 4 hrs by UPLC-MS/MS analysis; type: ADME, organism-based
# [14] = AUC (0 to t) in C57BL/6 mouse at 50 mg/kg, ip measured after 4 hrs by HPLC-MS/MS analysis; type: ADME, organism-based; design: time 4 hrs, dose 50 mg/kg, route ip; conditions: in vivo
# B16-F10 [15] = assay: Antitumor activity against mouse B16-F10 cells implanted in allogenic BALB/c mouse assessed as decrease in PD-L1 mRNA level at 50 mg/kg, ip by qPCR analysis; type: functional, organism-based
# [16] = Initial drug concentration in C57BL/6 mouse at 50 mg/kg, ip measured after 4 hrs by HPLC-MS/MS analysis; type: ADME, organism-based; conditions: in vivo
# [17] = Drug concentration in heart of C57BL/6 mouse implanted with mouse B16-F10 cells at 50 mg/kg, ip measured after 1 hrs by UPLC-MS/MS analysis; type: ADME, organism-based; conditions: read-out: Ct
# HepG2 [18] = assay: Antitumor activity against human HepG2 cells assessed as reduction in cell viability at 1.1 to 10 uM incubated for 48 hrs by CCK-8 assay; type: functional, cell-based; conditions: dose 1.1-10 µM
# [19] = Drug concentration in tumor of C57BL/6 mouse implanted with mouse B16-F10 cells at 50 mg/kg, ip measured after 0.5 hrs by UPLC-MS/MS analysis; type: ADME, organism-based, Neoplasm; conditions: read-out: Ct
# [20] = Drug concentration in brain of C57BL/6 mouse implanted with mouse B16-F10 cells at 50 mg/kg, ip measured after 1 hrs by UPLC-MS/MS analysis; type: ADME, organism-based; conditions: read-out: Ct
# [21] = Half-life in Sprague-Dawley rat at 20 mg/kg, po measured after 48 hrs by HPLC-MS/MS analysis; type: ADME, organism-based; conditions: in vivo
# [22] = Drug concentration in brain of C57BL/6 mouse implanted with mouse B16-F10 cells at 50 mg/kg, ip measured after 0.5 hrs by UPLC-MS/MS analysis; type: ADME, organism-based; conditions: read-out: Ct
# [23] = Drug concentration in kidney of C57BL/6 mouse implanted with mouse B16-F10 cells at 50 mg/kg, ip measured after 4 hrs by UPLC-MS/MS analysis; type: ADME, organism-based; conditions: read-out: Ct
# HepG2 [24] = assay: Antitumor immunity activity against human HepG2 cells expressing human PD-L1 co-cultured with human Jurkat T cells expressing human PD-1 assessed as reduction in cell viability at 10 uM incubated for 48 hrs by CCK8 assay relative to control; type: functional
# [25] = Drug concentration in lung of C57BL/6 mouse implanted with mouse B16-F10 cells at 50 mg/kg, ip measured after 0.5 hrs by UPLC-MS/MS analysis; type: ADME, organism-based; conditions: read-out: Ct
# B16-F10 [26] = assay: Antitumor activity against mouse B16-F10 cells implanted in syngeneic C57BL/6 mouse assessed as decrease in tumor weight at 50 mg/kg, ip measured after 12 days relative to control; type: functional; design: scale not given: the % may be the effect or the level left; conditions: time 12 day
# [27] = Drug concentration in spleen of C57BL/6 mouse implanted with mouse B16-F10 cells at 50 mg/kg, ip measured after 4 hrs by UPLC-MS/MS analysis; type: ADME, organism-based; conditions: read-out: Ct
# B16-F10 [28] = assay: Antitumor immunity against mouse B16-F10 cells implanted in allogenic BALB/c mouse assessed as increase in CD3+ CD8+ T cells percentage at 50 mg/kg, ip by flow cytometric analysis; type: functional, organism-based
# [29] = Drug concentration in heart of C57BL/6 mouse implanted with mouse B16-F10 cells at 50 mg/kg, ip measured after 4 hrs by UPLC-MS/MS analysis; type: ADME, organism-based; conditions: read-out: Ct
# [30] = Drug concentration in heart of C57BL/6 mouse implanted with mouse B16-F10 cells at 50 mg/kg, ip measured after 2 hrs by UPLC-MS/MS analysis; type: ADME, organism-based; conditions: read-out: Ct
# B16-F10 [31] = assay: Antitumor activity against mouse B16-F10 cells implanted in allogenic BALB/c mouse assessed as increase in CXCR3 mRNA level in tumor at 50 mg/kg, ip by qPCR analysis; type: functional, organism-based
# [32] = target: Programmed cell death protein 1/Programmed cell death 1 ligand 1 (Homo sapiens) (UniProt Q15116+Q9NZQ7); assay: Inhibition of GST-tagged PD-1 (unknown origin)/His-tagged PD-L1 (unknown origin) interaction at 100 nM by HTRF binding assay relative to control; type: protein-complex assay
# [33] = Drug concentration in spleen of C57BL/6 mouse implanted with mouse B16-F10 cells at 50 mg/kg, ip measured after 0.5 hrs by UPLC-MS/MS analysis; type: ADME, organism-based; conditions: read-out: Ct
# [34] = target: Programmed cell death 1 ligand 1 (Homo sapiens, UniProt Q9NZQ7); assay: Binding affinity to human PD-L1 assessed as dissociation constant by SPR analysis
# [35] = Drug concentration in liver of C57BL/6 mouse implanted with mouse B16-F10 cells at 50 mg/kg, ip measured after 2 hrs by UPLC-MS/MS analysis; type: ADME, organism-based; conditions: read-out: Ct
# Programmed cell death 1 ligand 1, sequence (Q9NZQ7 whole entry): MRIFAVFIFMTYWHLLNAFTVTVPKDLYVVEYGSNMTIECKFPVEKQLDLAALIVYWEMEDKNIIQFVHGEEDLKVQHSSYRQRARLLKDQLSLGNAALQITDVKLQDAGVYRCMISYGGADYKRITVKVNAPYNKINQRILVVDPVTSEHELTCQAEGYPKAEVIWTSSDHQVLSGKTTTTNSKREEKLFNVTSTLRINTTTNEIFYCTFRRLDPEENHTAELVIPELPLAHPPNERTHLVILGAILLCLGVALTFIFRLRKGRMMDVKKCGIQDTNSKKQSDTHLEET
smiles,measurement,setting,value
Cc1c(COc2cc(OCc3cccc(C#N)c3)c(CN3CCCCC3C(=O)NCCNC(=O)CCCC[C@@H]3SC[C@@H]4NC(=O)N[C@@H]43)cc2Cl)cccc1-c1ccccc1 (stereo not given in full),Activity,B16-F10 [1],Active
same,Activity,[2],Non-Toxic
same,concentration at 1 h,[3],1980 ng/mL
same,Vd,[4],31 L/kg
same,MRT inf,[5],9.84 h
same,concentration at 1 h,[6],1460 ng/mL
same,Activity,[7],Non-Toxic
same,Activity,B16-F10 [8],52.6%
same,concentration at 4 h,[9],4.6 ng/mL
same,concentration at 2 h,[10],404 ng/mL
same,concentration at 1 h,[11],3470 ng/mL
same,concentration at 2 h,[12],4.2 ng/mL
same,concentration at 4 h,[13],1460 ng/mL
same,AUCt,[14],4673.237 µg/L/h
same,Activity,B16-F10 [15],Active
same,C0,[16],570.948 ng/mL
same,concentration at 1 h,[17],15.9 ng/mL
same,Activity,HepG2 [18],inactive
same,concentration at 0.5 h,[19],15.5 ng/mL
same,concentration at 1 h,[20],3 ng/mL
same,half-life,[21],2.6 h
same,concentration at 0.5 h,[22],2.5 ng/mL
same,concentration at 4 h,[23],380 ng/mL
same,Activity,HepG2 [24],2.7%
same,concentration at 0.5 h,[25],285 ng/mL
same,Activity,B16-F10 [26],39.1%
same,concentration at 4 h,[27],7570 ng/mL
same,Activity,B16-F10 [28],Active
same,concentration at 4 h,[29],16.3 ng/mL
same,concentration at 2 h,[30],12.4 ng/mL
same,Activity,B16-F10 [31],Active
same,inhibition,[32],104%
same,concentration at 0.5 h,[33],4570 ng/mL
same,Kd,[34],43.7 nM
same,concentration at 2 h,[35],1670 ng/mL
